Results published in publication PMC6273789, “Asperpyrone-Type Bis-Naphtho-γ-Pyrones with COX-2–Inhibitory Activities from Marine-Derived Fungus Aspergillus niger” (Molecules, 2016).

Target: T1, COX-2 (Ovis aries, UniProt P79208)
T1 construct: gene PTGS2
T1 sequence (P79208 17-603): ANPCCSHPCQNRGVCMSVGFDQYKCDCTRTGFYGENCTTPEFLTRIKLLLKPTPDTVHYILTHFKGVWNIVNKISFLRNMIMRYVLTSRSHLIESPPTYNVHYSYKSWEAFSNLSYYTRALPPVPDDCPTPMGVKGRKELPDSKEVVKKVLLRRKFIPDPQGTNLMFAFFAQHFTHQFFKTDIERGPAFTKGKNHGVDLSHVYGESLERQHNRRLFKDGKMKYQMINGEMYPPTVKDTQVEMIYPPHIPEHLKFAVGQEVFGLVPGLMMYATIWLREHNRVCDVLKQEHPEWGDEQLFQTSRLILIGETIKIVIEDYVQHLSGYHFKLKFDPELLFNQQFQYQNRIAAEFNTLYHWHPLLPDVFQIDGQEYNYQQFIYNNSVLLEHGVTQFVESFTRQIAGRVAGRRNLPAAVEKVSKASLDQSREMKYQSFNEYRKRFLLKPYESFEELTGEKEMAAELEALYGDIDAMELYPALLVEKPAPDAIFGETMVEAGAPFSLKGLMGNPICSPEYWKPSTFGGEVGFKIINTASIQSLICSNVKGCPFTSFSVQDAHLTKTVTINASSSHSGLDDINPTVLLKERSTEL
Assay: COX (ovine) inhibitor screening kit
Type: biochemical

COc1cc(OC)c2c(O)c3c(=O)cc(C)oc3c(-c3c(O)cc4cc(O)c5c(=O)cc(C)oc5c4c3OC)c2c1 [compound 8, asperpyrone A]
IC50: 6.4 µM

COc1cc(OC)c2c(O)c3c(=O)cc(C)oc3c(-c3c(O)cc4cc5c(c(O)c4c3OC)C(=O)CC(C)(O)O5)c2c1 (stereo not drawn) [compound 3, aurasperone F]
IC50: 11.1 µM

COc1cc(OC)c2c(O)c3c(c(-c4c(O)cc5cc6c(c(O)c5c4OC)C(=O)CC(C)(O)O6)c2c1)OC(C)(O)CC3=O (stereo not drawn) [compound 6, aurasperone C]
IC50: 4.2 µM
